Biological target: dephosphorylated PDK1 (Homo sapiens (Human), UniProt O15530)
Test: PDK1 kinase assay (coupled PDK1/AKT/FAM-crosstide, IMAP)
Type: biochemical
Conditions: 25 nM un-phosphorylated PDK1, 24 μM ATP; read-out: Inhibition of dephospo-PDK1 in vitro IC50
Outline: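 Coupled cascade using 25 nM dephosphorylated PDK1 (aa 51–360, lambda-phosphatase treated, MS-verified), 30 nM unphosphorylated GST-AKT2 (aa 140–467)-PIFtide and 100 nM FAM-crosstide in Tris pH 7.2, 10 mM MgCl2, 1 mM DTT. ATP was 24 μM, with 30 min at 25 °C. Product was read by IMAP fluorescence polarization, and ΔmP against concentration was fitted with a 4-parameter model.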

dephosphorylated PDK1, sequence (O15530 51-360): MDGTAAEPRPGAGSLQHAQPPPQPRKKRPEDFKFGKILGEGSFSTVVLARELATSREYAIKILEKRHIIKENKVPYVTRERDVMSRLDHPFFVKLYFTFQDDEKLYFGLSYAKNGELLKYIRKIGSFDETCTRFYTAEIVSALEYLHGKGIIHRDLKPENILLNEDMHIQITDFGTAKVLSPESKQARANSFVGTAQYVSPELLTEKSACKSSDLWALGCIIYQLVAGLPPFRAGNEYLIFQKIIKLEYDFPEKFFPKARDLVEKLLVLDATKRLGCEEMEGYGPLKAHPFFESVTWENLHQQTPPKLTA

## O=C(NCc1nc(-c2c[nH]c3ncccc23)cs1)c1cccn(Cc2ccc(F)c(F)c2)c1=O [Cpd 112]
  IC50: < 500 nM

From patent US9873693B2 (Sunesis Pharmaceuticals, Inc., priority 2006, dated 2018)
